# Several values for one entry are separate records, joined by “and”; a condition that tells them apart may be missing. Identical values can stand only once. Entries after “also recorded” stand apart in the source; their conditions may differ.
# Tests used:
# [1] = solifenacin 10 mg versus placebo
# Description: Safety and tolerability were evaluated based on subject reports, physician observations and examinations, and the performance of standard laboratory tests.
# [2] = system: Tg2576 mouse model of AD; conditions: in vivo; cited from earlier work
# [3] = in vivo; cited from earlier work
# [4] = Single-blind crossover study in healthy volunteers: maximum tolerated dose and adverse events of rivastigmine given with placebo or active trospium; format: in vivo, human
# Description: (§1) In this single-blind crossover study, healthy volunteers were hospitalized at a Phase I Center (Forenap, Rouffach, France) for the once daily oral administration of ascending doses of rivastigmine hydrogen tartrate (“rivastigmine”), (3 mg to a possible maximum of 24 mg in 3 mg increments as tolerated) together with placebo trospium and then with ascending amounts of rivastigmine (3 mg to a possible maximum of 24 mg as tolerated) together with active trospium. Placebo trospium or active trospium (at a fixed dose of 40 mg per day) were given orally once daily 3 hours before rivastigmine administration. Venous blood was collected for the measurement of plasma drug levels at their nominal peaks (approximately 1 hour after rivastigmine administration). Subjects were monitored clinically for 4 hours after drug administration or until all adverse events had subsided.
# [5] = Same study: peak plasma levels of rivastigmine given with placebo or active trospium; format: in vivo, human
# Description: as §1
# [6] = cited from earlier work
# [7] = open-label, 1.5 mg up to 6 mg twice daily, 26 weeks; no worsening of motor function; cited from earlier work
# [8] = system: acetylcholinesterase / butyrylcholinesterase; conditions: cited from earlier work
# [9] = Birks 2009; Forette 1999; cited from earlier work
# [10] = subject (c), dose above tolerated dose
compound,measurement,setting,value
"COc1cc2c(cc1OC)C(=O)C(CC1CCN(Cc3ccccc3)CC1)C2 (racemic) [donepezil, (±)-2,3-dihydro-5,6-dimethoxy-2-[[1-(phenylmethyl)-4-piperidinyl]methyl]-1H-inden-1-one]",Adverse events at the tolerated donepezil dose given with placebo solifenacin,"individual subjects, donepezil 5 mg (a, b, c, f), 15 mg (d), 30 mg (e)","no adverse events; also recorded: severe abdominal pain, weakness, moderate anorexia, sweating and dry mouth; also recorded: moderate weakness, mild dizziness and moderate hypersalivation"
same,Adverse events at the tolerated donepezil dose given with 10 mg of solifenacin,"individual subjects, donepezil 10 mg (a, f), 15 mg (b, d), 5 mg (c), 40 mg (e)",moderate nausea and moderate dizziness; also recorded: no adverse events; also recorded: moderate abdominal pain and severe headache
same,Subjects in whom solifenacin co-treatment enabled substantially higher daily doses of donepezil,solifenacin 10 mg versus placebo,4 out of 6
same,Adverse events with 10 mg of donepezil and placebo solifenacin,[10],"severe anorexia, nausea, retching, vomiting, weakness, headache, moderate diarrhea, and mild sweating, dizziness, somnolence, hypersalivation, muscular cramps"
same,Adverse events with 10 mg of donepezil given with 10 mg of solifenacin,[10],severe nausea and retching
same,Increase of the donepezil MTD after donepezil/solifenacin combination,"the other subjects (a), (b), (e), (f)",33-300%
same,Increase of peak donepezil levels with combined therapy,[1],~2.6 fold
same,A-beta deposition in Tg2576 mice,[2],did not affect
same,Effect on A-beta and synaptic density parameters at lower doses,[2],not effective
same,Learning and memory functions in Tg2576 mice,[2],improved
same,Synaptic density in the molecular layer of the dentate gyrus,[2],significantly increased
"O=C(O[C@H]1C[C@H]2CC[C@@H](C1)[N+]21CCCC1)C(O)(c1ccccc1)c1ccccc1 [Trospium, 3-(2-hydroxy-2,2-diphenylacetoxy)-spiro[bicyclo[3.2.1]octane-8,1′-pyrrolidin]-1′-ium]",Average plasma half-life of the absorbed amount,[3],about 18 hours
"CCN(C)C(=O)Oc1cccc([C@H](C)N(C)C)c1 [rivastigmine, (S)—N-Ethyl-N-methyl-3-[1-(dimethylamino)ethyl]-phenyl carbamate]",Tolerated dose of rivastigmine given with placebo trospium,"[4]; individual healthy volunteers (a)-(c), once daily oral ascending doses 3 to 24 mg, placebo trospium 3 hours before",9 mg and 15 mg
same,Tolerated dose of rivastigmine given with 40 mg of trospium,"[4]; individual healthy volunteers (a)-(c), once daily oral ascending doses 3 to 24 mg, trospium 40 mg oral 3 hours before",24 mg and 18 mg
same,Adverse events at the tolerated rivastigmine dose given with placebo trospium,"[4]; individual subjects, rivastigmine 9 mg (a), 15 mg (b, c)",moderate nausea and mild somnolence; also recorded: mild dry mouth
same,Adverse events at the tolerated rivastigmine dose given with 40 mg of trospium,"[4]; individual subjects, rivastigmine 24 mg (a), 18 mg (b, c)","mild nausea as well as abdominal pain, headache and respiratory difficulty in addition to moderate anorexia; also recorded: mild dry mouth and moderate urinary difficulty"
same,Tolerated rivastigmine dose with 40 mg trospium as multiple of the maximum recommended single oral dose (6 mg),"[4]; subject (a): 4, subjects (b) and (c): 3",4 times and 3 times
same,Average peak plasma rivastigmine with trospium relative to without trospium,[5]; 88 ng/ml versus 30.7 ng/ml,2.9 times
same,Average peak plasma rivastigmine with trospium relative to literature value,[5]; 88 ng/ml versus about 12 ng/ml reported,~7.3 times
same,Average peak plasma concentration of rivastigmine given without trospium,[5]; average of 2 subjects,30.7 ng/mL
same,Peak plasma (maximum tolerated) concentration of rivastigmine given with placebo trospium,"[5]; venous blood about 1 hour after 15 mg rivastigmine, individual subjects (b), (c)",53 ng/mL and 8.3 ng/mL
same,Peak plasma (maximum tolerated) concentration of rivastigmine given with 40 mg of trospium,"[5]; venous blood about 1 hour after rivastigmine 24 mg (a) or 18 mg (b, c), individual subjects",39 ng/mL and 94 ng/mL and 131 ng/mL
same,Benefits on cognitive and global measures relevant to dementia,[6]; patients with dementias of the Alzheimer type,"small, but statistically significant, benefits"
same,Cognitive improvement in patients with Alzheimer's disease on doubling the dose,"[6]; skin patches instead of immediate release tablets, without increasing side effects",significantly increased the amount of cognitive improvement
same,Cognitive functions in PD patients with dementia,[7],may improve the cognitive functions
same,Affinity / selectivity for acetylcholinesterase versus butyrylcholinesterase,[8],inhibits both enzymes with similar affinity
same,Reported average maximum tolerated single oral dose of rivastigmine,[9],about 4.5 mg

# Source: patent US9913836B2, “Anticholinergic neuroprotective composition and methods” (priority 2012, dated 2018)
